From US12370235B2, “Synthetic, non-natural antimicrobial peptides inspired by Staphylococcus auricularis delta toxin” (University of Saskatchewan, priority 2021, dated 2025)
Ends that are not written are not given here.

Experiments:
[1] = system: Mannheimia haemolytica ATCC 33393; assay: MIC, broth dilution; assay type: cell-based
Method in brief: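 Read-out is the lowest peptide concentration showing no growth after an overnight standing culture at 37 °C. Two-fold serial dilutions of 95%-pure peptide were tested against M. haemolytica ATCC 33393 at OD 6×10^−4 in cation-adjusted MH broth.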

[2] = system: Candida duobushaemulonii AR 392; assay: MIC, YPD broth, CDC and FDA AR Candida isolate panel; assay type: cell-based; settings: Table 9 top part: titrations from 1.56 to 100 μg/mL
Method in brief: (§1)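 Overnight standing culture at 37° C in the presence of peptide serially diluted by halves. Starting cell density corresponded to an optical density of […].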

Kodamae ohmeri AR 396 = assay: as above; assay type: cell-based; settings: Table 9 top part: titrations from 1.56 to 100 μg/mL
Method in brief: as §1

[3] = Circular dichroism spectroscopy; assay type: physicochemical; settings: CD, 50% (v/v) TFE
Source text: The δ-toxins and the PSMs are characterized as α-helical peptides that form amyloid fibers^48. Although the propensity of individual peptides to form amyloids is correlated to their cytotoxicity^49, the amyloid form is not directly implicated in cell membrane disruption^50. […] CD spectroscopy was used to investigate the secondary structure of a subset of peptides within the collection (FIG. 4A, Table 5). The STIP variants adopted α-helical forms in 50% (v/v) trifluoroethanol (TFE), though unlike the full-length S. auricularis δ-toxin, they were unstructured in water. […] Specifically, peptides characterized by the greatest and least α-helical content in TFE had MICs above the highest tested threshold.
Circular dichroism spectroscopy. Peptides were dissolved in water at concentrations between 0.3 and 0.5 mg/mL. CD spectra were recorded on an Applied Photophysics Chirascan Plus CD spectrophotometer at room temperature in a 0.1 cm path-length quartz cuvette. Spectra were recorded from 180 to 260 nm.

C. albicans MYA-2876 = assay: MIC, YPD broth; assay type: cell-based, Candida albicans; settings: Table 8
Method in brief: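 Yeast cells were diluted in YPD broth, and 180 μl aliquots were mixed with 20 μl of peptide from 2-fold serial dilutions in flat-bottom 96-well microtitre plates. Wells receiving 20 μl sterile water served as controls. After standing incubation overnight at 37° C, the MIC was taken as the lowest peptide concentration with no visible microbial growth.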

SspA protease = SspA protease (Staphylococcus aureus, UniProt P0C1U8); assay: SspA protease treatment, LC/MS analysis; assay type: in vitro ADME; settings: in vitro, 37° C., ˜5 hours
Chain of SspA protease (P0C1U8 69-336): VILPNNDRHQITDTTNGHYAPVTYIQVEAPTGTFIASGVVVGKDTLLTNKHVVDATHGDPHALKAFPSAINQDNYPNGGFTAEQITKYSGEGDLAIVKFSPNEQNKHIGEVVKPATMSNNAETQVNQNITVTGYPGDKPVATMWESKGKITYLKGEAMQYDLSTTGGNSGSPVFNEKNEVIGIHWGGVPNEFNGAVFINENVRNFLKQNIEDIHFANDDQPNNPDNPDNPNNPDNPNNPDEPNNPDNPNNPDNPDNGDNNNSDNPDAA
Description: (§2) SspA protease treatment. SspA protease was resuspended at 2 mg/mL in 100 mM HEPES, pH 7.8. Proteolysis was achieved by incubation of 50 μg PSMs at 37° C. for ˜5 hours with 0.2 mg/mL SspA. The antimicrobial activity of the proteolytic products were assayed by spotting a 5 μL (˜45 μg) from each treated peptide on each test microorganism as described above.
HPLC/MS analysis. High performance liquid chromatography coupled to mass spectrometry (HPLC-MS) was conducted to assess the proteolytic cleavage of synthetic PSMs by the SspA protease, as described above. Both treated samples and untreated controls were incubated at 37° C. for 5 hours, and then frozen until HPLC/MS analysis. An Agilent Infinity II 1260 HPLC outfitted with a Phenomenex Lune C5 column (4.6×150 mm, 5 μm) was used to separate the peptide fragments using a binary solvent system consisting of solvent A (water, 0.05% formic acid) and solvent B (acetonitrile, 0.05% formic acid) operating at 0.7 mL/min. A 5 μl volume (˜4.5 μg) of each sample was injected at 10% solvent B, followed by a two-step gradient elution from 10 to 50% solvent B in 30 minutes, then 50 to 100% B in 10 minutes. The HPLC was coupled to an Advion CMS(L) single quadrupole mass detector through an electrospray ionization source. A line splitter from the HPLC to ESI source was used to deliver sample to the mass detector at 0.3 mL/min. An Advion expression-L CMS detector was used at low temperature and fragmentation settings: capillary temperature: 135° C., capillary voltage 120 V, source voltage offset 20 V, source gas temperature 135° C. and ESI voltage 3500 V. The range of ions detected was between 100 and 2,000 m/z.

S. aureus ATCC 29213 [4] = assay: Spot-on-lawn assay; assay type: cell-based, Staphylococcus aureus; settings: 50 μg peptide spotted on agar
Description: Spot-on-lawn assay. For the initial screen, peptides of ≥70% purity were used. Each peptide was resuspended in sterile water to a concentration of 10 mg/ml. To determine antimicrobial activities a spot-on-lawn assay was performed. M. luteus and S. aureus were used as indicator strains. To prepare test organisms, the optical density (OD) of overnight cultures were measured and the organisms were diluted to an initial OD of 0.05 in soft nutrient agar (0.4% w/v) at 50° C. Next, 3 mL of soft agar containing a test organism was overlaid on a solid 1.5% w/v nutrient agar plate (LB). A total of 50 μg of each peptide was spotted on the inoculated surface and plates were incubated for 16 to 48 h before being examined for zones of inhibition.
as §2

M. luteus ATCC 4698 = assay: MIC, broth dilution; assay type: cell-based, Micrococcus luteus; settings: Table 4; liquid broth
Description: MIC determination. MICs were measured using peptides with 95% purity. For bacterial studies, cation-adjusted Mueller Hinton (MH) broth was used as the growth medium whereas Yeast Peptone Dextrose (YPD; 10 g/L yeast extract, 20 g/L peptone, 20 g/L dextrose) was used for Candida spp. and other yeast. Microorganisms were diluted to an optical density of […] in MH or YPD broth and a 180 μl volume was mixed with 20 μl of peptide arrayed as a 2-fold dilution series in a flat-bottom 96-well microtitre plate. A control was performed using 20 μl of sterile water. Plates were incubated as standing cultures overnight at 37° C.
Determination of minimum inhibitory concentrations. The MICs were measured for bioactive peptides identified from the initial screen. For bacterial studies, cation-adjusted Mueller Hinton (MH) broth was used as the growth medium whereas YPD was used for C. albicans. Bacterial cultures were diluted to a OD value of 6×10^−4 in MH broth and a 180 μl volume was mixed with 20 μl of peptide arrayed as 2-fold dilution series in a 96-well plate. For the positive control, 20 μl of sterile water was used. Plates were incubated as standing cultures overnight at 37° C. The lowest peptide concentration that resulted no observed microbial growth after an overnight treatment was defined as the MIC.

S. aureus ATCC 29213 [5] = assay: MIC, broth dilution; assay type: cell-based, Staphylococcus aureus; settings: for MIC (μg/mL) S. aureus: liquid broth
Method in brief: (§3)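 Peptides of 95% purity tested as 2-fold dilution series against bacteria diluted to OD 6×10^−4 in cation-adjusted Mueller Hinton broth. Standing cultures incubated overnight at 37° C; MIC is the lowest concentration with no visible growth.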

[6] = system: Saccharomyces cerevisiae AR 399; assay: MIC, YPD broth, CDC and FDA AR Candida isolate panel; assay type: cell-based; settings: Table 9 top part: titrations from 1.56 to 100 μg/mL
Method in brief: as §1

[7] = system: Saccharomyces cerevisiae AR 400; assay: as above; assay type: cell-based; settings: Table 9 top part: titrations from 1.56 to 100 μg/mL
Method in brief: as §1

Candida krusei AR 397 = assay: as above; assay type: cell-based; settings: Table 9 top part: titrations from 1.56 to 100 μg/mL
Method in brief: as §1

[8] = system: S. aureus ATCC BAA-41 (MRSA SCCmec type II); assay: MIC, broth dilution; assay type: cell-based, Staphylococcus aureus; settings: Table 5; STIP3 variants, highest concentration 100 μg/mL
Method in brief: as §3

[9] = system: S. aureus ATCC BAA-2313 (MRSA SCCmec type XI); assay: MIC, broth dilution; assay type: cell-based, Staphylococcus aureus; settings: Table 5; STIP3 variants, highest concentration 100 μg/mL
Method in brief: as §3

[10] = system: S. aureus ATCC BAA-2094 (MRSA SCCmec type V); assay: MIC, broth dilution; assay type: cell-based, Staphylococcus aureus; settings: Table 5; STIP3 variants, highest concentration 100 μg/mL
Method in brief: as §3

[11] = system: S. aureus ATCC 33592 (MRSA SCCmec type III); assay: MIC, broth dilution; assay type: cell-based, Staphylococcus aureus; settings: Table 5; STIP3 variants, highest concentration 100 μg/mL
Method in brief: as §3

[12] = system: S. aureus ATCC BAA-1683 (MRSA SCCmec type IV); assay: MIC, broth dilution; assay type: cell-based, Staphylococcus aureus; settings: Table 5; STIP3 variants, highest concentration 100 μg/mL
Method in brief: as §3

[13] = system: S. aureus ATCC BAA-42 (MRSA SCCmec type VI); assay: MIC, broth dilution; assay type: cell-based, Staphylococcus aureus; settings: Table 5; STIP3 variants, highest concentration 100 μg/mL
Method in brief: as §3

[14] = system: S. aureus ATCC BAA-44 (MRSA SCCmec type I); assay: MIC, broth dilution; assay type: cell-based, Staphylococcus aureus; settings: Table 5; STIP3 variants, highest concentration 100 μg/mL
Method in brief: as §3

[15] = Table 11, highest concentration 25 μg/mL

Substance | MIC (μg/mL) M. haemolytica ([1]; Table 10, liquid broth) [µg/mL] | inhibition of S. aureus, spot-on-lawn (S. aureus ATCC 29213 [4]) | MIC (μg/mL) M. luteus (M. luteus ATCC 4698) [µg/mL] | MIC (μg/mL) S. aureus (S. aureus ATCC 29213 [5]; Table 4) | MIC (μg/mL) S. aureus (S. aureus ATCC 29213 [5]; Table 10) | also measured
H-MTKDIVETVGGLVKWILDTVKKFA [δ-toxin (df), reference compound] | – | – | – | – | – | MIC (μg/mL) M. haemolytica [1, 15]: > (> symbol indicates that no inhibition was observed at the highest concentration of peptide tested: 25 μg/mL); MIC (μg/mL) Candida duobushaemulonii AR 392 [2]: > (MIC values reported at the top of the table (above the double line) are based on titrations from 1.56 to 100 μg/mL); MIC (μg/mL) Kodamae ohmeri AR 396 (Kodamae ohmeri AR 396): > (MIC values reported at the top of the table (above the double line) are based on titrations from 1.56 to 100 μg/mL); α helicity (%) [3]: 87%; MIC C. albicans MYA-2876 (C. albicans MYA-2876): 100 µg/mL; susceptibility to SspA cleavage (SspA protease): susceptible to SspA cleavage in vitro
TVAGLVKWILDTVKKFA [G3A, TVAGLVKWILDTVKKFA] | 100 | observed to inhibit S. aureus | 50 | >^b (> = >200 μg/mL (maximum concentration tested)) | >^b (the use of > indicates an MIC > 200 μg/mL; the maximum concentration tested) | –
TVGALVKWILDTVKKFA [G4A, TVGALVKWILDTVKKFA] | 50 | observed to inhibit S. aureus | 12.5 | >^b (> = >200 μg/mL (maximum concentration tested)) | >^b (the use of > indicates an MIC > 200 μg/mL; the maximum concentration tested) | –
TVGGLVKWILATVKKFA [STIP3-2, TVGGLVKWILATVKKFA] | 50 | observed to inhibit S. aureus | 3.13 | 100 µg/mL | – | MIC (μg/mL) M. haemolytica [1, 15]: 25 µg/mL; MIC (μg/mL) Saccharomyces cerevisiae AR 399 [6]: 50 µg/mL; MIC (μg/mL) Candida duobushaemulonii AR 392 [2]: > (MIC values reported at the top of the table (above the double line) are based on titrations from 1.56 to 100 μg/mL); MIC (μg/mL) Saccharomyces cerevisiae AR 400 [7]: 100 µg/mL; MIC (μg/mL) Candida krusei AR 397 (Candida krusei AR 397): 50 µg/mL; MIC (μg/mL) Kodamae ohmeri AR 396 (Kodamae ohmeri AR 396): 100 µg/mL; MIC S. aureus ATCC BAA 41 (II) [8]: 100 µg/mL; MIC S. aureus ATCC BAA 2313 (XI) [9]: 50 µg/mL; MIC S. aureus ATCC BAA 2094 (V) [10]: 50 µg/mL; MIC S. aureus ATCC 33592 (III) [11]: 50 µg/mL; MIC S. aureus ATCC BAA 1683 (IV) [12]: 50 µg/mL; MIC S. aureus ATCC BAA 42 (VI) [13]: 50 µg/mL; MIC S. aureus ATCC BAA 44 (I) [14]: 100 µg/mL; MIC S. aureus ATCC 29213 (S. aureus ATCC 29213 [5]; Table 5, STIP3 variants, highest concentration 100 μg/mL): 100 µg/mL; α helicity (%) [3]: 50%; MIC C. albicans MYA-2876 (C. albicans MYA-2876): 100 µg/mL
TVGGLVKWILDAVKKFA [T12A, TVGGLVKWILDAVKKFA] | 50 | observed to inhibit S. aureus | 12.5 | 100 µg/mL | – | –
TVGGLVKWILDTVAKFA [K14A, TVGGLVKWILDTVAKFA] | 100 | observed to inhibit S. aureus | 12.5 | >^b (> = >200 μg/mL (maximum concentration tested)) | >^b (the use of > indicates an MIC > 200 μg/mL; the maximum concentration tested) | –
TVGGLVKWILDTVKAFA [K15A, TVGGLVKWILDTVKAFA] | 50 | observed to inhibit S. aureus | 25 | >^b (> = >200 μg/mL (maximum concentration tested)) | >^b (the use of > indicates an MIC > 200 μg/mL; the maximum concentration tested) | –
